Format in all cases: physicochemical
A short description of data set [1]: Oxidation/degradation during salt screening and salt preparation. The note with it: for degradation during preparation: salt preparation / air-drying. As to the method:
A salt/co-crystal screening was conducted under 127 conditions with 20 salt/co-crystal co-formers and seven solvent systems. For each condition, approximately 20 mg of Compound 1 was dispersed in the selected solvent in a glass vial and then salt/co-crystal co-former was added. Observation of slurries were followed by isolation and analysis of the resulting solids. Even though some crystalline solids were isolated and analyzed by XRPD, discoloration, possibly associated with decomposition was also observed (Table 1). Salt-screening experiments yielding a unique XRPD pattern were analyzed by HPLC-UV and were all determined to be primarily composed of degradants.
With the exception of the HBr salt, salt screening was unsuccessful in identifying further options for new forms of Compound 1 because of degradation. […] For example, solvent systems in which Compound 1 has limited solubility were chosen for formation of the HCl and sulfates salts to limit oxidation, while providing enough solubility to promote conversion to crystalline salts. However, this approach is time consuming and not favorable for large scale manufacturing methods.

A short description of data set [2]: Dynamic Vapor Sorption (DVS) moisture uptake.
A short description of data set [3]: Slurry in acetone/water (1:1 v/v), hydrate stability at water activity. The note with it: aw=0.91, acetone/water 1:1 v/v, slurried one week at ambient. The source says: Form D can also isolated from the amorphous bis-hydrogen bromide salt form of Compound 1 in a slurry experiment comprising acetone/water (1:1 v/v). For example, a saturated solution the amorphous bis-hydrogen bromide salt form om acetone/water (1:1 v/v) was slurried for one week at ambient and the solid was harvested to obtain Form D. The water activity (aw) of an equal volume mixture of acetone and water is 0.91. See SSCI internal report, Water Activity Calculations using UNIFAC Calculator, SR-20150515.01, dated Jul. 23, 2015. When solvent-free polymorphs are considered, the relative thermodynamic stability of two polymorphs is determined by the Gibbs free energy difference at a given temperature and pressure. However, when hydrate forms are considered, the water activity in the solvent contributes to the relative physical stability and thus, the resulting form. See Qu H, Louhi-Kultanen M, Kallas J. Solubility and stability of anhydrate/hydrate in solvent mixtures. Int J Pharm. 2006; 321:101-107 and Zhu H, Grant D J W. Influence of water activity in organic solvent+water mixtures on the nature of the crystallizing drug phase. 2. Ampicillin. Int J Pharm. 1996; 139:33-43.

The nature of data set [4]: Solubility in re-slurry solvents.

“Also recorded” adds a separate entry of the source. Where a name gives a salt, the structure may show the parent alone.

With `CCS(=O)(=O)c1ccc(CNC(=O)c2cnc3c(c2)CN(C[C@H]2CC[C@H](C(F)(F)F)CC2)[C@H]3C(C)C)nc1` [Compound 1], the susceptibility to oxidation entry in data set [1] (particularly in solution) is reported as “highly susceptible to oxidation”.
For `CCS(=O)(=O)c1ccc(CNC(=O)c2cnc3c(c2)CN(C[C@H]2CC[C@H](C(F)(F)F)CC2)[C@H]3C(C)C)nc1` [Form D], the “moisture uptake compared with the other solid forms” value in data set [2] (DVS isotherm plots, FIG. 16 vs FIGS. 4, 8, 12) was “significantly less moisture update; also recorded: significantly less than the other forms”. The “stability of the hydrate at water activity” value in data set [3] is reported as “stable”. The “solubility in isopropyl acetate/water mixture compared with heptane/water mixture” value in data set [4] is “greater”. In addition, in data set [4] (re-slurry solvents), the “solubility in IPAc compared with n-heptane” value is “slightly higher”.
Take `CCS(=O)(=O)c1ccc(CNC(=O)c2cnc3c(c2)CN(C[C@H]2CC[C@H](C(F)(F)F)CC2)[C@H]3C(C)C)nc1` [bis-hydrogen bromide salt]: in data set [2] (DVS isotherm, FIG. 16), the “weight change (moisture uptake)” value is reported as at most 5%. The degradation during preparation result in data set [1] was “did not degrade during preparation”.
On to `Br.CCS(=O)(=O)c1ccc(CNC(=O)c2cnc3c(c2)CN(C[C@H]2CC[C@H](C(F)(F)F)CC2)[C@H]3C(C)C)nc1` [mono-hydrogen bromide salt], for which, in data set [2] (DVS, FIGS. 8 and 16), the “amount of water absorbed relative to the corresponding bis-hydrogen bromide form” value is “about twice the amount of water”. For the same compound, the degradation during preparation entry in data set [1] is listed as “did not degrade during preparation”.
In the case of `O=S(=O)(O)O` [sulfate], the degradation during preparation entry in data set [1] is listed as “less degradation than others”.
For the compound adipic acid, the “composition of isolated salt-screening solid by HPLC-UV” value in data set [1] (salt/co-crystal screening of Compound 1) was “primarily degradants”.

These data come from patent US11186573B2, “Inhibitors of ROR gamma” (Vitae Pharmaceuticals, LLC, priority 2017, dated 2021).
